We go through one compound from ChEMBL document CHEMBL6153037, “Developing dual-responsive quinolinium prodrugs of 8-hydroxyquinoline by harnessing the dual chelating sites” (Eur J Med Chem, 2025).

Calls of active or inactive are those of the source. The rule behind the calls is not given here.

The subject of data set [1] is MDA-MB-231. Kind of data set: Inhibition of DNA synthesis in human MDA-MB-231 cells by EdU incorporation assay. The format is functional, cell-based.
In data set [2] the test system is HeLa. Briefly: Cytotoxicity against CuCl2-treated human HeLa cells assessed as inhibition of cell viability incubated for 48 hrs by MTT assay. The format is functional, cell-based.
Data set [3] concerns MDA-MB-231. Kind of data set: Induction of apoptosis in human MDA-MB-231 cells assessed as viable cells at 0.4 uM incubated for 24 hrs by Annexin V-FITC/PI staining based flow cytometry (reference value: 86.2 %). Type of data set: functional. The following applies: read-out: Activity. (Flow cytometry measures light scatter and fluorescence of single cells or particles in a stream.)

Data set [4] is described as follows: Induction of apoptosis in human MCF-10A cells assessed as viable cells at 1.2 uM incubated for 24 hrs by Annexin V-FITC/PI staining based flow cytometry (reference value: 92.5 %). The format is toxicity, cell-based. The conditions noted are these: read-out: Activity.
For data set [5], the system named is MDA-MB-231. Kind of data set: Induction of apoptosis in human MDA-MB-231 cells assessed as necrotic cells at 0.4 uM incubated for 24 hrs by Annexin V-FITC/PI staining based flow cytometry (reference value: 0.59 %). The format is functional.
The subject of data set [6] is MDA-MB-231. Kind of data set: Cytotoxicity against human MDA-MB-231 cells assessed as increase in red fluorescence at 0.4 to 0.8 uM by Calcein AM/PI staining based analysis. Type of data set: functional, cell-based. The following applies: dose 0.4-0.8 µM.
Data set [7] concerns MDA-MB-231. Briefly: Induction of apoptosis in human MDA-MB-231 cells assessed as necrotic cells at 0.8 uM incubated for 24 hrs by Annexin V-FITC/PI staining based flow cytometry (reference value: 0.59 %). Type of data set: functional.
Data set [8] in a line: Toxicity in BALB/c nude mouse xenografted with human MDA-MB-231 cells assessed as body weight change at 10 to 20 mg/kg, iv administered every two days for 21 days. The format is organism-based. The following applies: in vivo, 504 h, dose 10-20 mg/kg, time 21 day. For orientation: In xenograft studies the graft and the host belong to different species.
Data set [9] deals with MDA-MB-231. Kind of data set: Inhibition of mitochondrial membrane potential in human MDA-MB-231 cells assessed as increase in green fluorescence at 0.8 uM incubated for 24 hrs by JC-1 dye based analysis. Type of data set: functional, cell-based.
The test system of data set [10] is MCF-10A. Briefly: Induction of apoptosis in human MCF-10A cells assessed as necrotic cells at 1.2 uM incubated for 24 hrs by Annexin V-FITC/PI staining based flow cytometry (reference value: 1.38 %). The format is toxicity, cell-based.
The test system of data set [11] is MDA-MB-231. Kind of data set: Antitumor activity against human MDA-MB-231 cells xenografted in BALB/c nude mouse assessed as tumor growth inhibition at 10 to 20 mg/kg, iv administered every two days for 21 days. The format is functional, organism-based. The conditions noted are these: dose 10-20 mg/kg, time 21.0 day.
The subject of data set [12] is MDA-MB-231. Briefly: Induction of apoptosis in human MDA-MB-231 cells assessed as early apoptotic cells at 0.8 uM incubated for 24 hrs by Annexin V-FITC/PI staining based flow cytometry (reference value: 7.39 %). Type of data set: functional.
Data set [13] has as its system MDA-MB-231. Kind of data set: Antitumor activity against human MDA-MB-231 cells xenografted in BALB/c nude mouse assessed as tumor size at 20 mg/kg, iv administered every two days for 21 days (reference value: 1940 mm3). The format is functional. The following applies: time 21 day.
Data set [14] relates to MDA-MB-231. Briefly: Induction of apoptosis in human MDA-MB-231 cells assessed as viable cells at 1.2 uM incubated for 24 hrs by Annexin V-FITC/PI staining based flow cytometry (reference value: 86.2 %). The following applies: read-out: Activity. Type of data set: functional.
In data set [15] the test system is MCF-10A. Briefly: Cytotoxicity against human MCF-10A cells assessed as increase in red fluorescence at 0.4 to 0.8 uM by Calcein AM/PI staining based analysis. The conditions noted are these: dose 0.4-0.8 µM. Type of data set: toxicity, cell-based.
In data set [16] the test system is MCF-10A. Kind of data set: Inhibition of mitochondrial membrane potential in human MCF-10A cells assessed as increase in green fluorescence at 0.8 uM incubated for 24 hrs by JC-1 dye based analysis. Type of data set: toxicity, cell-based.
Data set [17] concerns MDA-MB-231. Briefly: Anti-migration activity in human MDA-MB-231 cells at 0.4 uM incubated for 48 hrs by wound healing assay (reference value: 65.2 %). The format is functional.
Data set [18] in a line: Cytotoxicity against human MCF-10A cells assessed as cell survival at 10 uM incubated for 48 hrs by MTT assay relative to control. The format is toxicity, cell-based. The following applies: read-out: Survival.
For data set [19], the system named is MDA-MB-231. Briefly: Cytotoxicity against LPS-treated human MDA-MB-231 cells incubated for 48 hrs by MTT assay. The format is functional, cell-based. Background: Tetrazolium assays rely on reduction of a dye to a coloured formazan, in cell work by metabolically active cells.
In data set [20] the test system is MDA-MB-231. Kind of data set: Antitumor activity against human MDA-MB-231 cells assessed as reduction in sphere volume incubated for 6 hrs followed by medium replacement without compound measured after 6 days by microscopic analysis. The format is functional, cell-based.
For data set [21], the system named is MDA-MB-231. Briefly: Inhibition of mitochondrial membrane potential in human MDA-MB-231 cells assessed as decrease in ATP level at 0.4 to 0.8 uM incubated for 24 hrs by luminescence based analysis. The conditions noted are these: dose 0.4-0.8 µM. The format is functional, cell-based.
In data set [22] the test system is MCF-10A. Kind of data set: Induction of apoptosis in human MCF-10A cells assessed as late apoptotic cells at 0.4 uM incubated for 24 hrs by Annexin V-FITC/PI staining based flow cytometry (reference value: 3.13 %). Type of data set: toxicity, cell-based.
Data set [23] concerns MCF-10A. Kind of data set: Induction of apoptosis in human MCF-10A cells assessed as necrotic cells at 0.4 uM incubated for 24 hrs by Annexin V-FITC/PI staining based flow cytometry (reference value: 1.38 %). Type of data set: toxicity, cell-based.
Data set [24] has as its system MDA-MB-231. Briefly: Cytotoxicity against NAC-treated human MDA-MB-231 cells incubated for 48 hrs by MTT assay. Type of data set: functional, cell-based.

A word on the IC50: it is the point on the concentration scale where inhibition reaches its midpoint. Consider `CC1(C)OB(c2ccc(C[n+]3cccc4cccc(O)c43)cc2)OC1(C)C.[Br-]`, for which the inhibition result in [1], in data set [9], in data set [11] and in data set [21] was “Active” each time. The half-inhibitory concentration (IC50) in [2] was determined as 11.2 µM. The viability at 0.4 µM in [3] stood at 71.2%. Moreover, the viability at 24 h, 1.2 µM in data set [4] came out at 93.3%. In addition, the Activity in [5] is recorded as 1.47%; in data set [7], 7.08%; in data set [8], “Non-toxic”; in [10], 0.84%; in data set [12] it was 40.3%; in data set [13], 710 mm3. The Activity entry in data set [15] is listed as “Non-toxic”; in data set [16], “Non-toxic”; in [17], 34.6%; in data set [22], 2.74%; in data set [23], 0.36%. The outcome in data set [6], in data set [19] and in data set [20] was Active. Further, in data set [14], the viability at 1.2 µM is 6.61%. Also, the viability at 48 h, 10 µM in data set [18] came out at 86%. In addition, the result in [24] was inactive.
